The values that follow come from ChEMBL document CHEMBL1201862, “PubChem BioAssay data set” (2004).

Test [1] concerns the target NAD-dependent protein deacylase sirtuin-5, mitochondrial (Homo sapiens, UniProt Q9NXA8). Kind of test: SIRT5 desuccinylase inhibitors, dose response, biochemical, fluorescence imaging, cherry-pick, set 5 (AID 720591).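 Also: desuccinylation of succinyl peptide AMC substrate read as fluorescence after trypsin release; potency of inhibitors that lower fluorescence and may act on trypsin instead.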
Test [2] in a line: inhibitors of HIV Env-driven cell fusion, dose response, cherry-pick (AID 652057). The format is functional, cell-based.
Test [3] can be described thus: CEM21 lymphoblast cell cytotoxicity, dose response, cytotoxicity control for viral fusion inhibitor project, CellTiter-Glo luminescence, cherry-picked (AID 652042).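 Also: potency for signal decrease meaning cytotoxicity.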 The format is functional, cell-based.
Test [4] is described as follows: ZM109 Env clade C HIV-1 fusion inhibitors, dose response, HeLa effector, CEM target cells, luciferase, cherry-pick (AID 652058). It counts as functional, cell-based.
Test [5] can be described thus: off-target signal loss in HeLa-CEM21 co-culture – HeLa F-luc CTL cells, cherry-picked, counter-screen for HIV-1 Env fusion inhibitor project, dose response (AID 652040).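 Also: potency for signal decrease marking cytotoxic or nonspecific inhibition.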 It counts as functional, cell-based. In general terms: A counterscreen serves to expose hits that act by an unwanted route or on another target.
Test [6] is described as follows: inhibitors of clade B AD8 Env fusion, dose response, cell-based, cherry-pick (AID 652062).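 Also: luciferase signal from cell-cell fusion driven by HIV-1 clade B AD8 Env; potency is for inhibitors of fusion seen as a drop in luminescence.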 It counts as functional.
Test [7] can be described thus: A549 cell cytotoxicity, dose response, cytotoxicity control, plate reader, cherry-pick, antagonist series (AID 743412). It counts as functional, cell-based.
Test [8] is described as follows: HepG2 cell cytotoxicity, dose response, cytotoxicity control, plate reader, cherry-pick, antagonist series (AID 743416). It counts as functional, cell-based.
The nature of test [9]: LGR2 antagonists, dose response, cell-based, HEK293, CRE-luciferase reporter, cherry pick, set 2 (AID 743343).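 Also: transfected cells were stimulated with diluted bursicon conditioned medium after compound addition.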 The format is functional. In general terms: A reporter such as luciferase makes a cellular process visible.
The nature of test [10]: MC4R antagonists, dose response, counter-screen for LGR2 antagonist project, cell-based, plate reader, cherry pick (AID 743444).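 Also: transfected HEK 293 cells stimulated with alpha-MSH peptide; potency of inhibitors of the alpha-MSH evoked signal.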 The format is functional.
Test [11] in a line: HEK293 cell cytotoxicity, dose response, cytotoxicity control, plate reader, cherry-picked samples (AID 743446). The format is functional, cell-based.
A short description of test [12]: inhibitors of intracellular T. cruzi replication, confirmation, NIH3T3 host cells, beta-gal luminescence (AID 2044).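 Also: intracellular parasites grown in NIH/3T3 mouse fibroblasts as host cells; luminescent beta-galactosidase reporter signal from transgenic T. cruzi replicating inside host cells; inhibitors lower the luminescence signal.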 It counts as functional, cell-based.
Test [13] can be described thus: cytotoxicity toward NIH3T3 fibroblasts, dose response, counter-screen, cell-based, ATP luminescence, mouse fibroblasts (AID 2010).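 Also: cells exposed to compound for about 90 hours before reading.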 It counts as functional.
Test [14] deals with Disintegrin and metalloproteinase domain-containing protein 17 (Homo sapiens, UniProt P78536). The test is described as follows: exosite inhibitors of ADAM17, dose response, biochemical (AID 743260).
Chain of Disintegrin and metalloproteinase domain-containing protein 17 (P78536 whole entry, the tested form may be a part): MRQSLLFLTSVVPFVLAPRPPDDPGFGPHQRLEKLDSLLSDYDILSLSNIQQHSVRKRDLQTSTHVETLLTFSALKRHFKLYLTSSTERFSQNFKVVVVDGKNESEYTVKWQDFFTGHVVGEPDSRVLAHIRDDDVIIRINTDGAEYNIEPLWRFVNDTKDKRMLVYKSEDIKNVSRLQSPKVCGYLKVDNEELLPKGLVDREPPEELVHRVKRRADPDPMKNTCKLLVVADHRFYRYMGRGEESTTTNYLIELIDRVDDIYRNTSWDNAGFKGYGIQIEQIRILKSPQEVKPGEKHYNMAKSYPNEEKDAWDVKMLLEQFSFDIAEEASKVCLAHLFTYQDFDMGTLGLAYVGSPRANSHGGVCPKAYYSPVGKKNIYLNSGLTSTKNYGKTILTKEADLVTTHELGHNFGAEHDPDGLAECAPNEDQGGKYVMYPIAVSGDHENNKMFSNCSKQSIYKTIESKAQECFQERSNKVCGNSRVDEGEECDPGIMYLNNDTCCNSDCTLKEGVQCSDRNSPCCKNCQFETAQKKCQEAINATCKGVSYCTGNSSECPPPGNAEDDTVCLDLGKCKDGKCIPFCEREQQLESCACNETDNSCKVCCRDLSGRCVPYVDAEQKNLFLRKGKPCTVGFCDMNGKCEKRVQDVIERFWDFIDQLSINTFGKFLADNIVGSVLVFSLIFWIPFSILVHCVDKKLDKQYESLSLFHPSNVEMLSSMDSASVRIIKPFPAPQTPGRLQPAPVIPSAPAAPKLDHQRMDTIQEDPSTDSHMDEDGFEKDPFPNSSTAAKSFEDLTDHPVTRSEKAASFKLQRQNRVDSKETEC
Test [15] can be described thus: ADAM10 protease inhibitors, dose response, selectivity assay for ADAM17 exosite inhibitor project, biochemical, FRET peptide substrate, recombinant human ADAM10 (AID 743259).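 Also: ADAM10 enzyme cleaving a FRET peptide substrate.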
Test [16] in a line: Shn3 3'UTR reporter inhibitors, dose response, cell-based, Clone20 osteoblasts, firefly luciferase, cherry-picked (AID 624132).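 Also: firefly luciferase luminescence from reporter carrying the Shn3 3'UTR in osteoblasts.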 The format is functional.
A short description of test [17]: reduction of Shn3 3'UTR firefly luciferase signal, dose response, Schnurri-3 inhibitor project, cell-based, Clone20 osteoblasts, cherry-pick, set 2 (AID 720490).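 Also: actives lower the luminescence signal as inhibitors.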 The format is functional.
The target in test [18] is Metabotropic glutamate receptor 5 (Rattus norvegicus, UniProt P31424). The test is described as follows: Identification of a glycine sulfonamide based non-MPEP site positive allosteric potentiator (PAM) of mGlu5 (calcium_assay). It counts as functional.
Chain of Metabotropic glutamate receptor 5 (P31424 whole entry): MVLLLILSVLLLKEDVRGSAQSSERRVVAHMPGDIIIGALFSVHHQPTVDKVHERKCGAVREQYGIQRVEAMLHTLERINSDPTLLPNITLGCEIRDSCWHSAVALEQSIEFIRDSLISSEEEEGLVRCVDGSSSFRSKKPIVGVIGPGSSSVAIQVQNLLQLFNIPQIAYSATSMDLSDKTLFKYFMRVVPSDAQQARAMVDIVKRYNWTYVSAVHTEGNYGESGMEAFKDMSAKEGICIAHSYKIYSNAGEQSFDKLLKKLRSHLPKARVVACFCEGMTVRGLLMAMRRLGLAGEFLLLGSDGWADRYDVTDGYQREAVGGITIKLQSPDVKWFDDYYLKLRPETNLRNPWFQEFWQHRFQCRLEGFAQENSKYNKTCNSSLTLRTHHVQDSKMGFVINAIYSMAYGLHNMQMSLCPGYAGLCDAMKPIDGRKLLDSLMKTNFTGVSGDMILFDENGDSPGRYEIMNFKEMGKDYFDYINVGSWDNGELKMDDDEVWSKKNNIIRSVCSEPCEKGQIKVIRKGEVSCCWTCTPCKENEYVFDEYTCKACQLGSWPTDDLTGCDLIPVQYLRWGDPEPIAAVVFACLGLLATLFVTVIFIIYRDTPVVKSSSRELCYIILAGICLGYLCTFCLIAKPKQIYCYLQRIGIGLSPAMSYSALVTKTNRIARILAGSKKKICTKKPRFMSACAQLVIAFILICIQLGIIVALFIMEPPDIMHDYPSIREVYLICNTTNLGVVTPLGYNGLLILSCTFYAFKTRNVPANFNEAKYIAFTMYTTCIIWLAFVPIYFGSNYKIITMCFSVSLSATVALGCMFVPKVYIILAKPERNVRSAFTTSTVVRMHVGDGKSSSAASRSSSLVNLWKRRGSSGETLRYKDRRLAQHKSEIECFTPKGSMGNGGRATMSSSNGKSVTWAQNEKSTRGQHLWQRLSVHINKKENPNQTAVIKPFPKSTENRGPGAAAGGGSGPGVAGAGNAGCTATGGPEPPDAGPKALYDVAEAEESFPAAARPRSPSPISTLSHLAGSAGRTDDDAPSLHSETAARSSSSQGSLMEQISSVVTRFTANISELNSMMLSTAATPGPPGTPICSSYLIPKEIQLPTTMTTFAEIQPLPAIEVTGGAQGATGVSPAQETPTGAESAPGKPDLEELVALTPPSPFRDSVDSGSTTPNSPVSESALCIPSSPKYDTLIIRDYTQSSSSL
The next test has as its target Paired box protein Pax-8 (Homo sapiens, UniProt Q06710). Kind of test: inhibitors of PAX8-driven TPO luciferase reporter, dose response, RMG-I cells, cherry-pick (AID 687027).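 Also: luciferase reporter driven by Pax8 target thyroperoxidase promoter measured by SteadyGlo luminescence.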 It counts as functional, cell-based.
The nature of test [19]: NIH:OVCAR-3 ovarian cancer cell cytotoxicity, dose response, PAX8 inhibitor project, plate reader, dry powder samples (AID 743044). The format is functional, cell-based.
A short description of test [20]: cytotoxicity in OVCAR8 ovarian cancer cells, dose response, PAX8 project, cell-based, plate reader, dry powder samples (AID 743197). The format is functional. The note with it: OVCAR-8.
The nature of test [21]: Luminescence Cell-Based Dose Retest to Confirm Inhibitors of Cancer Stem Cells. [Related pubchem assays (depositor defined):AID2717, AID2721]. It counts as functional. The note with it: Homo sapiens.
Test [22] can be described thus: P. falciparum Dd2 growth inhibitors, dose response, SYBR Green, cherry-picked samples (AID 1159567). The format is functional, cell-based.
Test [23] in a line: HepG2 cell cytotoxicity, dose response, cytotoxicity control, cherry-picked samples (AID 1159577). The format is functional, cell-based.

Calls of active or inactive are those of the source.

Chain of NAD-dependent protein deacylase sirtuin-5, mitochondrial (Q9NXA8 whole entry, the tested form may be a part): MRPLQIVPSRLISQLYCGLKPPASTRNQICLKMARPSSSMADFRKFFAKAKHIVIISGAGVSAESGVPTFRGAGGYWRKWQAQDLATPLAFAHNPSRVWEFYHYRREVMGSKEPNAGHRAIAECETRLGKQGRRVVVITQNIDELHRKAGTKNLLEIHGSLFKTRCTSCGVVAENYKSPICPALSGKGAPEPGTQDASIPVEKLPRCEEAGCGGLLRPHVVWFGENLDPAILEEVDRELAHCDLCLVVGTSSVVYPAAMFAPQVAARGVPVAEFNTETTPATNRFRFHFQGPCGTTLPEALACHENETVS
Chain of Paired box protein Pax-8 (Q06710 whole entry): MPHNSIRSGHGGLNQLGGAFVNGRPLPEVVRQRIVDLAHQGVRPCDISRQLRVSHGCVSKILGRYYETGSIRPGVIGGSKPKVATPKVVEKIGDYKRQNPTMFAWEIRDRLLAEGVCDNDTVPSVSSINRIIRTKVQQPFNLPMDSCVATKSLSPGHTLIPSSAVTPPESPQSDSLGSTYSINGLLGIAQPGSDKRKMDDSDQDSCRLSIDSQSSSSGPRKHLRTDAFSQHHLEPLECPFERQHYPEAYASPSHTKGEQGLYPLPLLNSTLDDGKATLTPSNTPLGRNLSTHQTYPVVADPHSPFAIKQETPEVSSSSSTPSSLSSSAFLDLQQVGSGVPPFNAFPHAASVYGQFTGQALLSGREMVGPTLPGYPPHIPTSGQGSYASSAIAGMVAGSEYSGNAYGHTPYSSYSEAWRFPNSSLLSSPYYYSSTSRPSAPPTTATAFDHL

For the compound `CC(C(=O)NC(N)=O)N1C(=O)NC(c2ccccc2)(c2ccccc2)C1=O` (stereo not given), the AC50 (commonly the concentration at which the activity in the assay is half-maximal) in [1] was > 30 µM (inactive).

Turning to `O=C(NC1CCCCC1)c1[nH]nc2c1CCCCC2`, the AC50 in test [2] is 6.09 µM (active); in [3] it was 29.7 µM (active); in test [4], 16.3 µM (active); in test [5], 13.8 µM (active); in [6], 7.38 µM (active); in [7], 37.1 µM (active). Besides, the AC50 in [8] was > 52 µM (inactive); in test [9], 3.2 µM (active); in test [10], 2.24 µM (active); in test [11], > 52 µM (inactive).

For `Cc1cc(=O)oc2c(C)c(OC(C)C(=O)NCCCN3CCCC3=O)ccc12` (stereo not given), the AC50 in [1] was > 30 µM (inactive).

As to `CC(C)Oc1ccc(CNCCC2(C(C)C)CCOC(C)(C)C2)cc1` (stereo not given), the EC50 (in general, the concentration that produces a half-maximal response) is < 0.1 µM (active) in test [12], > 60 µM (not active) in test [13] and 0.154 µM (active) in the test “cells”.

In the case of `O=C(O)CCC(=O)c1c[nH]c2ccccc12`, the IC50 (commonly the concentration at which inhibition is half-maximal) was 24.9 µM (inactive) in test [14] and > 69.5 µM (inactive) in [15].

Regarding `O=C(CCCn1cnc([N+](=O)[O-])n1)Nc1ccc(F)c(Cl)c1`, the EC50 is < 0.1 µM (active) in test [12], > 60 µM (not active) in test [13] and 0.098 µM (active) in the test “cells”.

For `Cc1ccc(S(=O)(=O)CC(=O)N(CCCN(C)C)c2nc3ccc(C)cc3s2)cc1`, the EC50 in test [12] is < 0.1 µM (active); in [13] it was > 30 µM (not active); in the test “cells”, 0.06 µM (active).

`Cc1ccccc1S(=O)(=O)N(C)C[C@@H]1OCc2ccccc2-c2c(n(C)c3ccccc23)C(=O)N([C@H](C)CO)C[C@@H]1C`: the AC50 in [2] was 1.37 µM (active); in test [3], 31.6 µM (active); in [4], 1.75 µM (active); in [5], 1.66 µM (active); in [6] it was 3.16 µM (active).

With `CCCCN1CC(COCc2ccccc2)Oc2cccc(Oc3ccc(C(C)C)cc3)c2S1(=O)=O` (stereo not given), the AC50 in test [16] was 5.03 µM (active); in test [17] it was 4.4 µM (active).

For `CS(=O)(=O)N(CC(=O)Nc1ccccc1)c1ccccc1Cl`, in test [18], the EC50 was found to be 0.049 µM.

On to `C[C@H]1CCCCO[C@H](CN(C)C(=O)C2CCCCC2)[C@@H](C)CN([C@@H](C)CO)C(=O)c2cc(NS(=O)(=O)c3ccc(Cl)cc3)ccc2O1`, for which the AC50 on Paired box protein Pax-8 is 11.5 µM (active); in test [19], 33.9 µM (active); in test [20], > 70 µM (inactive).

On to `CS(=O)(=O)N1c2ccccc2CCC1C(=O)Nc1nccs1` (stereo not given), for which the EC50 in test [18] was found to be 4.43 µM.

`CC(C)NC(=O)CN(c1ccccc1Cl)S(C)(=O)=O`: the EC50 in test [18] was > 30 µM (inactive).

Regarding `CCOC(=O)C1=C(C(=O)OCC)C2N(Cc3ccc(C#N)cc3)c3ccccc3[C@@]23C[C@@H](C(=O)OC)N(S(=O)(=O)c2ccc(OC)cc2)C3=N1` (stereo not given in full), the figures for the IC50 in [14] and in [15] were > 69.5 µM (inactive) and 15.4 µM (inactive), respectively.

Consider `C/C(=N/Nc1ccc([N+](=O)[O-])cc1)c1ccc(C)cc1C`, for which, in test [21], the AC50 is 5.92 µM (active). Also, the results for the IC50 in test [14] and in test [15] were > 69.5 µM (inactive) and 20.5 µM (inactive), respectively.

With `N#Cc1ccc(-c2ccc([C@@H]3[C@@H]4CN(Cc5ccccc5F)C[C@H]3N4)cc2)cc1`, the AC50 in [22] is 1.88 µM (active); in test [23] it was 9.39 µM (active).

On to `COc1cccc(CN2C[C@@H]3N[C@H](C2)[C@@H]3c2ccc(-c3ccncc3)cc2)c1`, for which the AC50 was 4.63 µM (active) in test [22] and > 39 µM (inactive) in test [23].
